From patent publication US4401656A, “N-Substituted dimeric cyclopeptide derivatives” (Ayerst, McKenna & Harrison, Ltd., priority 1980, dated 1983) come the findings set out here.

The subject of one assay is Klebsiella pneumoniae. The assay can be described thus: serial broth dilution, growth inhibition. It counts as cell-based. As to conditions: nutrient broth, incubated at 37° C. for 2 days. The method, then:
(§1) Grove and W. A. Randall in "Assay Methods of Antibiotics", Med. Encycl. Inc., New York, 1955. […] 289.
(§2) For example, by employing a test like the serial broth dilution, see Grove and Randall, cited above, in which dilutions of the compounds of this invention in nutrient broth are inoculated with the microorganisms or fungi, described above, incubated at 37° C. for 2 days, respectively, and examined for the presence of growth, it may be shown that the preferred compounds N'N'-dicyclohexyl-α,α'-diisopropyl-2,5,8,11,14,17-hexaoxo-1,4,7,10,13,16-hexaazacyclooctadecane-1,10-diacetamide, isomer L, (Example 1), N'N'-dicyclohexyl-α,α'-diisopropyl-2,5,8,11,14,17-hexaoxo-1,4,7,10,13,16-hexaazacyclooctadecane-1,10-diacetamide, isomer M, (Example 1), and α,α'-diphenyl-N'N'-dicyclohexyl-2,5,8,11,14,17-hexaoxo-1,4,7,10,13,16-hexaazacyclooctadecane-1,10-diacetamide, isomer L, (Example 1) are able to inhibit growth totally in this system of Klebsiella pneumoniae and Serratia marcescens at a concentration of 100 mcg/ml.

The test system of a further assay is Serratia marcescens. Description: serial broth dilution, growth inhibition. The assay is classed as cell-based. As to conditions: nutrient broth, incubated at 37° C. for 2 days. The protocol:
as §1, §2

Turning to `CC(C)C(C(=O)NC1CCCCC1)N1CC(=O)NCC(=O)NCC(=O)N(C(C(=O)NC2CCCCC2)C(C)C)CC(=O)NCC(=O)NCC1=O` (stereo not drawn) [N,N'-Dicyclohexyl-α,α'-diisopropyl-2,5,8,11,14,17-hexaoxo-1,4,7,10,13,16-hexaazacyclooctadecane-1,10-diacetamide], the “concentration able to inhibit growth totally” value with Klebsiella pneumoniae and in the assay on Serratia marcescens was 100 µg/mL throughout.

Regarding `O=C1CNC(=O)CN(C(C(=O)NC2CCCCC2)c2ccccc2)C(=O)CNC(=O)CNC(=O)CN(C(C(=O)NC2CCCCC2)c2ccccc2)C(=O)CN1` (stereo not drawn) [α,α'-diphenyl-N,N'-dicyclohexyl-2,5,8,11,14,17-hexaoxo-1,4,7,10,13,16-hexaazacyclooctadecane-1,10-diacetamide], the “concentration able to inhibit growth totally” value in the assay with Klebsiella pneumoniae and with Serratia marcescens was 100 µg/mL throughout.
